Patent EP4635500A1, “THERAPEUTIC AGENT FOR BACTERIAL INFECTION” (Sumitomo Pharma Co., Ltd., priority 2022, dated 2024)
Values after ≈ are worked out from the molar mass of the structure shown. Like-named read-outs stand apart in the source and are kept apart here.

Tests used:
Enterobacterales = assay: MIC, broth microdilution, CDC/FDA Antibiotic Resistance Isolate Bank (Example 7, Tables 8, 11, 12); format: cell-based; settings: for MIC: read-out: MIC; for MIC50 / MIC90: carbapenemase-producing Enterobacterales; for MIC50: read-out: MIC50; for MIC90: read-out: MIC90
A. baumannii = assay: MIC, broth microdilution, CDC/FDA Antibiotic Resistance Isolate Bank (Example 7, Tables 9, 13, 14); format: cell-based, Acinetobacter baumannii; settings: for MIC: read-out: MIC
53 CRE and CPE strains = assay: MICrange, MIC50, MIC80, MIC90 for 53 bacterial isolates (Example 5, Table 5); format: cell-based; settings: 53 bacterial isolates
[1] = MIC distribution, metallo-β-lactamase-producing A. baumannii, inhibitor µg/mL in parentheses

## NCC[C@H](O)C(=O)N[C@@H]1C[C@H](N)[C@@H](O[C@H]2O[C@H](CN)[C@@H](O)[C@H](O)[C@H]2O)[C@H](O)[C@H]1O[C@H]1O[C@H](CO)[C@@H](O)[C@H](N)[C@H]1O [Amikacin, amikacin]
Enterobacterales; Klebsiella pneumoniae, KUB No. 5639, AR Bank # 142
  MIC: > 64 mg/L
Enterobacterales; Klebsiella pneumoniae, KUB No. 5640, AR Bank # 143
  MIC: > 64 mg/L
Enterobacterales; Klebsiella pneumoniae, KUB No. 5642, AR Bank # 145
  MIC: 16 mg/L (≈ 27.3 µM)
Enterobacterales; Klebsiella pneumoniae, KUB No. 5643, AR Bank # 146
  MIC: 16 mg/L (≈ 27.3 µM)
Enterobacterales; Klebsiella pneumoniae, KUB No. 5645, AR Bank # 148
  MIC: > 64 mg/L
Enterobacterales; Klebsiella pneumoniae, KUB No. 5649, AR Bank # 152
  MIC: 32 mg/L (≈ 54.6 µM)
Enterobacterales; Klebsiella pneumoniae, KUB No. 5650, AR Bank # 153
  MIC: > 64 mg/L
Enterobacterales; Klebsiella pneumoniae, KUB No. 5655, AR Bank # 158
  MIC: 2 mg/L (≈ 3.42 µM)
Enterobacterales; Klebsiella pneumoniae, KUB No. 5657, AR Bank # 160
  MIC: 0.5 mg/L (≈ 0.854 µM)
Enterobacterales; Klebsiella pneumoniae, KUB No. 5757, AR Bank # 361
  MIC: 32 mg/L (≈ 54.6 µM)
Enterobacterales; Klebsiella pneumoniae, KUB No. 5759, AR Bank # 363
  MIC: 16 mg/L (≈ 27.3 µM)
Enterobacterales; Klebsiella pneumoniae, KUB No. 5760, AR Bank # 364
  MIC: 16 mg/L (≈ 27.3 µM)
Enterobacterales; Klebsiella pneumoniae, KUB No. 5772, AR Bank # 376
  MIC: 2 mg/L (≈ 3.42 µM)
Enterobacterales; Klebsiella pneumoniae, Klebsiella pneumoniae KUB No. 5784, AR Bank #438
  MIC: 32 mg/L (≈ 54.6 µM)
Enterobacterales; Klebsiella pneumoniae, Klebsiella pneumoniae KUB No. 5797, AR Bank #453
  MIC: 32 mg/L (≈ 54.6 µM)
Enterobacterales; Klebsiella pneumoniae, Klebsiella pneumoniae KUB No. 5809, AR Bank #504
  MIC: 2 mg/L (≈ 3.42 µM)
Enterobacterales; Klebsiella pneumoniae, Klebsiella pneumoniae KUB No. 5810, AR Bank #505
  MIC: 8 mg/L (≈ 13.7 µM)
Enterobacterales; Klebsiella pneumoniae, Klebsiella pneumoniae KUB No. 5811, AR Bank #506
  MIC: 32 mg/L (≈ 54.6 µM)
Enterobacterales; Klebsiella pneumoniae, Klebsiella pneumoniae KUB No. 5812, AR Bank #507
  MIC: > 64 mg/L
Enterobacterales; Klebsiella pneumoniae, Klebsiella pneumoniae KUB No. 5827, AR Bank #522
  MIC: 4 mg/L (≈ 6.83 µM)
Enterobacterales; Klebsiella pneumoniae, Klebsiella pneumoniae KUB No. 5828, AR Bank #523
  MIC: 8 mg/L (≈ 13.7 µM)
Enterobacterales; Klebsiella pneumoniae, Klebsiella pneumoniae KUB No. 5829, AR Bank #524
  MIC: 16 mg/L (≈ 27.3 µM)
Enterobacterales; Klebsiella pneumoniae, Klebsiella pneumoniae KUB No. 5830, AR Bank #525
  MIC: 32 mg/L (≈ 54.6 µM)
Enterobacterales; Kluyvera ascorbata, KUB No. 5641, AR Bank # 144
  MIC: 4 mg/L (≈ 6.83 µM)
Enterobacterales; Morganella morganii, KUB No. 5554, AR Bank# 57
  MIC: 4 mg/L (≈ 6.83 µM)
Enterobacterales; Morganella morganii, KUB No. 5630, AR Bank # 133
  MIC: 1 mg/L (≈ 1.71 µM)
Enterobacterales; Proteus mirabilis, KUB No. 5556, AR Bank# 59
  MIC: 4 mg/L (≈ 6.83 µM)
Enterobacterales; Proteus mirabilis, KUB No. 5652, AR Bank # 155
  MIC: 1 mg/L (≈ 1.71 µM)
Enterobacterales; Proteus mirabilis, KUB No. 5653, AR Bank # 156
  MIC: 4 mg/L (≈ 6.83 µM)
Enterobacterales; Proteus mirabilis, KUB No. 5656, AR Bank # 159
  MIC: > 64 mg/L
Enterobacterales; Proteus mirabilis, KUB No. 5773, AR Bank # 377
  MIC: 2 mg/L (≈ 3.42 µM)
Enterobacterales; Proteus mirabilis, KUB No. 5775, AR Bank # 379
  MIC: 8 mg/L (≈ 13.7 µM)
Enterobacterales; Providencia rettgeri, KUB No. 5579, AR Bank # 82
  MIC: 1 mg/L (≈ 1.71 µM)
Enterobacterales; Salmonella enterica, Salmonella Senftenberg, KUB No. 5624, AR Bank # 127
  MIC: > 64 mg/L
Enterobacterales; Serratia marcescens, KUB No. 5588, AR Bank # 91
  MIC: 1 mg/L (≈ 1.71 µM)
Enterobacterales; Serratia marcescens, KUB No. 5596, AR Bank # 99
  MIC: 1 mg/L (≈ 1.71 µM)
Enterobacterales; Serratia marcescens, KUB No. 5618, AR Bank # 121
  MIC: 2 mg/L (≈ 3.42 µM)
Enterobacterales; Serratia marcescens, KUB No. 5619, AR Bank # 122
  MIC: 1 mg/L (≈ 1.71 µM)
Enterobacterales; Serratia marcescens, KUB No. 5620, AR Bank # 123
  MIC: 1 mg/L (≈ 1.71 µM)
Enterobacterales; Serratia marcescens, KUB No. 5621, AR Bank # 124
  MIC: 2 mg/L (≈ 3.42 µM)
Enterobacterales; Serratia marcescens, KUB No. 5627, AR Bank # 130
  MIC: 2 mg/L (≈ 3.42 µM)
Enterobacterales; Serratia marcescens, KUB No. 5628, AR Bank # 131
  MIC: 1 mg/L (≈ 1.71 µM)
Enterobacterales; Serratia marcescens, Serratia marcescens KUB No. 5822, AR Bank #517
  MIC: 8 mg/L (≈ 13.7 µM)
Enterobacterales; Serratia marcescens, Serratia marcescens KUB No. 5825, AR Bank #520
  MIC: 64 mg/L (≈ 109 µM)
Enterobacterales; Serratia marcescens, Serratia marcescens KUB No. 5826, AR Bank #521
  MIC: 2 mg/L (≈ 3.42 µM)
Enterobacterales; Metallo-β-lactamase (N = 47)
  MIC50: 16 mg/L (≈ 27.3 µM)
  MIC90: > 64 mg/L
Enterobacterales; Serine carbapenemase (N=61)
  MIC50: 4 mg/L (≈ 6.83 µM)
  MIC90: 64 mg/L (≈ 109 µM)
A. baumannii; Acinetobacter baumannii, A. baumannii KUB No. 5567, AR Bank #70, OXA-58, OXA-100
  MIC: 1 mg/L (≈ 1.71 µM)
A. baumannii; Acinetobacter baumannii, A. baumannii KUB No. 5575, AR Bank #78, OXA-71
  MIC: 32 mg/L (≈ 54.6 µM)
A. baumannii; Acinetobacter baumannii, A. baumannii KUB No. 5580, AR Bank #83, OXA-23, OXA-69, NDM-1
  MIC: > 64 mg/L
A. baumannii; Acinetobacter baumannii, A. baumannii KUB No. 5585, AR Bank #88, OXA-64, NDM-1
  MIC: 32 mg/L (≈ 54.6 µM)
A. baumannii; Acinetobacter baumannii, A. baumannii KUB No. 5598, AR Bank #101, OXA-24, OXA-65
  MIC: 64 mg/L (≈ 109 µM)
A. baumannii; Acinetobacter baumannii, A. baumannii KUB No. 5599, AR Bank #102, OXA-66
  MIC: > 64 mg/L
A. baumannii; Acinetobacter baumannii, A. baumannii KUB No. 5706, AR Bank #273, OXA-23, OXA-66
  MIC: > 64 mg/L
A. baumannii; Acinetobacter baumannii, A. baumannii KUB No. 5707, AR Bank #274, OXA-66, OXA-72
  MIC: 16 mg/L (≈ 27.3 µM)
A. baumannii; Acinetobacter baumannii, A. baumannii KUB No. 5708, AR Bank #275, OXA-23, OXA-66
  MIC: > 64 mg/L
A. baumannii; Acinetobacter baumannii, A. baumannii KUB No. 5709, AR Bank #276, no carbapenemase genes (-)
  MIC: 64 mg/L (≈ 109 µM)
A. baumannii; Acinetobacter baumannii, A. baumannii KUB No. 5710, AR Bank #277, OXA-24, OXA-65
  MIC: 16 mg/L (≈ 27.3 µM)
A. baumannii; Acinetobacter baumannii, A. baumannii KUB No. 5711, AR Bank #278, OXA-23, OXA-66
  MIC: > 64 mg/L
A. baumannii; Acinetobacter baumannii, A. baumannii KUB No. 5712, AR Bank #279, OXA-23, OXA-66
  MIC: > 64 mg/L
A. baumannii; Acinetobacter baumannii, A. baumannii KUB No. 5713, AR Bank #280, OXA-66
  MIC: 4 mg/L (≈ 6.83 µM)
A. baumannii; Acinetobacter baumannii, A. baumannii KUB No. 5714, AR Bank #281, OXA-82
  MIC: 2 mg/L (≈ 3.42 µM)
A. baumannii; Acinetobacter baumannii, A. baumannii KUB No. 5715, AR Bank #282, OXA-23, OXA-66
  MIC: > 64 mg/L
A. baumannii; Acinetobacter baumannii, A. baumannii KUB No. 5716, AR Bank #283, OXA-23, OXA-66
  MIC: > 64 mg/L
A. baumannii; Acinetobacter baumannii, A. baumannii KUB No. 5717, AR Bank #284, OXA-24, OXA-65
  MIC: 32 mg/L (≈ 54.6 µM)
A. baumannii; Acinetobacter baumannii, A. baumannii KUB No. 5718, AR Bank #285, OXA-24, OXA-65
  MIC: 64 mg/L (≈ 109 µM)
A. baumannii; Acinetobacter baumannii, KUB No. 5719, AR Bank #286
  MIC: > 64 mg/L
A. baumannii; Acinetobacter baumannii, KUB No. 5720, AR Bank #287
  MIC: 64 mg/L (≈ 109 µM)
A. baumannii; Acinetobacter baumannii, KUB No. 5721, AR Bank #288
  MIC: > 64 mg/L
A. baumannii; Acinetobacter baumannii, KUB No. 5722, AR Bank #259
  MIC: 32 mg/L (≈ 54.6 µM)
A. baumannii; Acinetobacter baumannii, KUB No. 5723, AR Bank #290
  MIC: > 64 mg/L
A. baumannii; Acinetobacter baumannii, KUB No. 5724, AR Bank #291
  MIC: > 64 mg/L
A. baumannii; Acinetobacter baumannii, KUB No. 5725, AR Bank #292
  MIC: 32 mg/L (≈ 54.6 µM)
A. baumannii; Acinetobacter baumannii, KUB No. 5726, AR Bank #293
  MIC: 16 mg/L (≈ 27.3 µM)
A. baumannii; Acinetobacter baumannii, KUB No. 5727, AR Bank #294
  MIC: 64 mg/L (≈ 109 µM)
A. baumannii; Acinetobacter baumannii, KUB No. 5728, AR Bank #295
  MIC: 2 mg/L (≈ 3.42 µM)
A. baumannii; Acinetobacter baumannii, KUB No. 5729, AR Bank #296
  MIC: > 64 mg/L
A. baumannii; Acinetobacter baumannii, KUB No. 5730, AR Bank #297
  MIC: 32 mg/L (≈ 54.6 µM)
A. baumannii; Acinetobacter baumannii, KUB No. 5731, AR Bank #298
  MIC: > 64 mg/L
A. baumannii; Acinetobacter baumannii, KUB No. 5732, AR Bank #299
  MIC: > 64 mg/L
A. baumannii; Acinetobacter baumannii, KUB No. 5733, AR Bank #300
  MIC: > 64 mg/L
A. baumannii; Acinetobacter baumannii, KUB No. 5734, AR Bank #301
  MIC: 64 mg/L (≈ 109 µM)
A. baumannii; Acinetobacter baumannii, KUB No. 5735, AR Bank #302
  MIC: > 64 mg/L
A. baumannii; Acinetobacter baumannii, KUB No. 5736, AR Bank #303
  MIC: > 64 mg/L
A. baumannii; Acinetobacter baumannii, KUB No. 5737, AR Bank #304
  MIC: 32 mg/L (≈ 54.6 µM)
A. baumannii; Acinetobacter baumannii, KUB No. 5738, AR Bank #305
  MIC: 32 mg/L (≈ 54.6 µM)
A. baumannii; Acinetobacter baumannii, KUB No. 5739, AR Bank #306
  MIC: 64 mg/L (≈ 109 µM)
A. baumannii; Acinetobacter baumannii, KUB No. 5740, AR Bank #307
  MIC: > 64 mg/L
A. baumannii; Acinetobacter baumannii, KUB No. 5741, AR Bank #308
  MIC: > 64 mg/L
A. baumannii; Acinetobacter baumannii, KUB No. 5742, AR Bank #309
  MIC: > 64 mg/L
A. baumannii; Acinetobacter baumannii, KUB No. 5743, AR Bank #310
  MIC: > 64 mg/L
A. baumannii; Acinetobacter baumannii, KUB No. 5744, AR Bank #311
  MIC: > 64 mg/L
A. baumannii; Acinetobacter baumannii, KUB No. 5745, AR Bank #312
  MIC: 1 mg/L (≈ 1.71 µM)
A. baumannii; Acinetobacter baumannii, KUB No. 5746, AR Bank #313
  MIC: 2 mg/L (≈ 3.42 µM)
A. baumannii; Acinetobacter baumannii, 55 isolates of A. baumannii, read-out: MIC50
  MIC50: 64 mg/L (≈ 109 µM)
A. baumannii; Acinetobacter baumannii, 55 isolates of A. baumannii, read-out: MIC80
  MIC80: > 64 mg/L
A. baumannii; Acinetobacter baumannii, 55 isolates of A. baumannii, read-out: MIC90
  MIC90: > 64 mg/L
A. baumannii; [1]
  Number of isolates at MIC 2 µg/mL: 2
  Number of isolates at MIC 32 µg/mL: 1
  Number of isolates at MIC >64 µg/mL: 1
53 CRE and CPE strains; read-out: MIC50
  MIC50: 2 mg/L (≈ 3.42 µM)
53 CRE and CPE strains; read-out: MIC80
  MIC80: 32 mg/L (≈ 54.6 µM)
53 CRE and CPE strains; read-out: MIC90
  MIC90: > 64 mg/L
